Results as given in paper PMC3598906 (2013).

How the values were obtained:
[1] = system: cmyc (DNA, G4) GGGGAGGGTGGGGAGGGTGGGGAAGGTGGGG; experiment: competitive dialysis; conditions: potassium phosphate buffer; 50 µM DNA, 1 µM ligand, 24 h, room temperature
[2] = system: ds26 (DNA, duplex) CAATCGGATCGAATTCGATCCGATTG; experiment: competitive dialysis; conditions: potassium phosphate buffer, 50 µM DNA, 1 µM ligand, 24 h, room temperature
ds6 (DNA, duplex) CGATCG [3] = experiment: 1H and 31P NMR titration; conditions: 70 mM KCl, 10 mM KH2PO4; 0.2 mM EDTA, pH 7.0; [drug]/[DNA] up to 3
[4] = system: HT24 (DNA, G4) TAGGGTTAGGGTTAGGGTTAGGGT; experiment: competitive dialysis; conditions: potassium phosphate buffer; 50 µM DNA, 1 µM ligand, 24 h, room temperature
Htel (DNA, G4) TTAGGG [5] = experiment: 1H NMR titration and NOESY; conditions: 150 mM KCl, 25 mM KH2PO4, 1 mM EDTA, pH 6.7, 25 °C
ds6 (DNA, duplex) CGATCG [6] = experiment: fluorescence titration; conditions: 185 mM KCl, 185 mM NaCl; pH 7, 25 °C; up to 25 µM DNA, 1 µM ligand; n.d., no change in fluorescence
[7] = system: 24bcl (DNA, G4) CGGGCGCGGGAGGAAGGGGGCGGG; experiment: competitive dialysis; conditions: potassium phosphate buffer; 50 µM DNA, 1 µM ligand, 24 h, room temperature
Htel (DNA, G4) TTAGGG [8] = experiment: fluorescence titration, Equispec fit; conditions: 185 mM KCl, 185 mM NaCl; 6 mM Na2HPO4, 2 mM NaH2PO4, 1 mM EDTA, pH 7, 25 °C; macroscopic; 1 µM ligand
Htel (DNA, G4) TTAGGG [9] = experiment: imino proton NMR melting; conditions: 150 mM KCl, 25 mM KH2PO4; 1 mM EDTA, pH 6.7; imino signals lost at 45-55 °C free, still observed at 55 °C bound
[10] = system: ds8 (DNA, duplex) GCGATCGC; experiment: 1H NMR titration; conditions: 70 mM KCl, 10 mM KH2PO4; 0.2 mM EDTA, pH 7.0; line broadening only, no intermolecular NOE; ions stated for other duplexes

Row | Compound | binding [1] | binding ([2]; NMR suggests outside binding) | binding (ds6 (DNA, duplex) CGATCG [3]) | binding [4] | binding (Htel (DNA, G4) TTAGGG [5]; intercalates between A3 and G4) | binding (ds6 (DNA, duplex) CGATCG [6]) | binding [7] | Logarithm of the binding constants (Htel (DNA, G4) TTAGGG [8]) | binding (Htel (DNA, G4) TTAGGG [9]) | binding [10] | binding [2] | binding (Htel (DNA, G4) TTAGGG [5]; site at T2, A3, G4)
1 | CN1CCN(C(=O)c2cccc3c(NCCc4c[nH]c5ccccc45)c4ccccc4nc23)CC1 | yes | yes | no | yes | yes | no | yes | 4.9 ± 0.1 log (M-1) | yes | weak | – | –
2 | CN1CCN(C(=O)c2ccc3c(NC4CCN(Cc5ccccc5)CC4)c4ccccc4nc3c2)CC1 | yes | – | – | yes | – | no | yes | 4.4 ± 0.1 log (M-1) | yes | – | no | yes
